Columns and labels:
human CB1 receptor = human CB1 receptor (Homo sapiens (Human), UniProt P21554); experiment: cAMP assay, CHO cells expressing human CB1 receptors; type: cell-based; conditions: functional cAMP assay, read-out: CB1 hcAMP EC50
Experimental: (§1) CHO cells expressing human CB1 or CB2 receptors are seeded 17-24 hours prior to the experiment 50.000 cells per well in a black 96 well plate with flat clear bottom (Corning Costar #3904) in DMEM (Invitrogen No. 31331), 1×HT supplement, with 10% fetal calf serum and incubated at 5% CO2 and 37° C. in a humidified incubator. The growth medium was exchanged with Krebs Ringer Bicarbonate buffer with 1 mM IBMX and incubated at 30° C. for 30 min. Compounds were added to a final assay volume of 100 μl and incubated for 30 min at 30° C. Using the cAMP-Nano-TRF detection kit the assay (Roche Diagnostics) was stopped by the addition of 50 μl lysis reagent (Tris, NaCl, 1.5% Triton X100, 2.5% NP40, 10% NaN3) and 50 μl detection solutions (20 μM mAb Alexa700-cAMP 1:1, and 48 μM Ruthenium-2-AHA-cAMP) and shaken for 2 h at room temperature. The time-resolved energy transfer is measured by a TRF reader (Evotec Technologies GmbH), equipped with a ND:YAG laser as excitation source. The plate is measured twice with the excitation at 355 nm and at the emission with a delay of 100 ns and a gate of 100 ns, total exposure time 10 s at 730 (bandwidth 30 nm) or 645 nm (bandwidth 75 nm), respectively. The FRET signal is calculated as follows: FRET=T730-Alexa730-P(T645-B645) with P=Ru730-B730/Ru645-B645, where T730 is the test well measured at 730 nM, T645 is the test well measured at 645 nm, B730 and B645 are the buffer controls at 730 nm and 645 nm, respectively. cAMP content is determined from the function of a standard curve spanning from 10 μM to 0.13 nM cAMP.
(§2) EC50 values were determined using Activity Base analysis (ID Business Solution, Limited). The EC50 values for a wide range of cannabinoid agonists generated from this assay were in agreement with the values published in the scientific literature.

human CB2 receptor = human CB2 receptor (Homo sapiens (Human), UniProt P34972); experiment: cAMP assay, CHO cells expressing human CB2 receptors; type: cell-based; conditions: functional cAMP assay, read-out: CB2 hcAMP EC50
Experimental: as §1, §2

Sequence of human CB2 receptor (P34972 whole entry): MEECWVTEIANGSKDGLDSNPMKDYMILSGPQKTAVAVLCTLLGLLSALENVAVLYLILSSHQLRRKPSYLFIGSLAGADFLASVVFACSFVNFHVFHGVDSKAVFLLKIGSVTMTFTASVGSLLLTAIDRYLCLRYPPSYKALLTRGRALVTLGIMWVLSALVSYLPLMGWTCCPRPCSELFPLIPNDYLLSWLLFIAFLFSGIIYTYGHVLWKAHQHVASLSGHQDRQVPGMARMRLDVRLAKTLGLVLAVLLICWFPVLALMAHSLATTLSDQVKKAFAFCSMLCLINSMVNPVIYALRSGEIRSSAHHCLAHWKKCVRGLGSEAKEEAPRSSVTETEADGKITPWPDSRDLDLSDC
Sequence of human CB1 receptor (P21554 whole entry): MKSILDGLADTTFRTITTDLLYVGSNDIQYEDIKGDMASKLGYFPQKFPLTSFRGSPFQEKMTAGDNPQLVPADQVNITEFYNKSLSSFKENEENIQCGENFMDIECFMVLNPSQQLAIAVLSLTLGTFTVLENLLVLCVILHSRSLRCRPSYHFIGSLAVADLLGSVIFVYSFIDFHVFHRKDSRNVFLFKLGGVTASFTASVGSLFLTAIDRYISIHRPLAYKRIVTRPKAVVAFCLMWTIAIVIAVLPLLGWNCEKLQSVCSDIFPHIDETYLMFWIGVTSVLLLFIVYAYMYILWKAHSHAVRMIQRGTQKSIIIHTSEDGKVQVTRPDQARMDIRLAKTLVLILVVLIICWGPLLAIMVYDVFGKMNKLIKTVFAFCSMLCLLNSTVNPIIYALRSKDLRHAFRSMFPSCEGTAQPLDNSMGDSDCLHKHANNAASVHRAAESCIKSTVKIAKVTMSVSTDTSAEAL

Row | SMILES | EC50 (human CB1 receptor) [nM] | EC50 (human CB2 receptor) [nM]
1 | FC(F)COc1nc(N2CCC(F)(F)C2)c2nnn(Cc3ccccc3Cl)c2n1 [Example 43, 3-[(2-Chlorophenyl)methyl]-5-(2,2-difluoroethoxy)-7-(3,3-difluoropyrrolidin-1-yl)triazolo[4,5-d]pyrimidine] | > 10000 | 26.4
2 | CC(C)CS(=O)(=O)c1nc(N2CCC(F)(F)C2)c2nnn(Cc3ccccc3Cl)c2n1 [Example 94, 3-[(2-Chlorophenyl)methyl]-7-(3,3-difluoropyrrolidin-1-yl)-5-(2-methylpropylsulfonyl)triazolo[4,5-d]pyrimidine] | > 10000 | 2.8
3 | CCCOc1nc(N2CCC(F)(F)C2)c2nnn(Cc3ccccc3Cl)c2n1 [Example 59, 3-[(2-Chlorophenyl)methyl]-7-(3,3-difluoropyrrolidin-1-yl)-5-propoxytriazolo[4,5-d]pyrimidine] | > 10000 | 0.9
4 | CC(O)CS(=O)(=O)c1nc(N2CCC(F)(F)C2)c2nnn(Cc3ccccc3Cl)c2n1 (centres unmarked) [Example 95, 1-[3-[(2-Chlorophenyl)methyl]-7-(3,3-difluoropyrrolidin-1-yl)triazolo[4,5-d]pyrimidin-5-yl]sulfonylpropan-2-ol] | > 10000 | 64.4
5 | FC1(F)CCN(c2nc(OC3CCC3)nc3c2nnn3Cc2ccccc2Cl)C1 [Example 48, 3-[(2-Chlorophenyl)methyl]-5-cyclobutyloxy-7-(3,3-difluoropyrrolidin-1-yl)triazolo[4,5-d]pyrimidine] | > 10000 | 1.7
6 | C#CCOc1nc(N2CCC(F)(F)C2)c2nnn(Cc3ccccc3Cl)c2n1 [Example 56, 3-[(2-Chlorophenyl)methyl]-7-(3,3-difluoropyrrolidin-1-yl)-5-prop-2-ynoxytriazolo [4,5-d]pyrimidine] | > 10000 | 11
7 | C[C@H](Oc1nc(N2CCC(F)(F)C2)c2nnn(Cc3ccccc3S(C)(=O)=O)c2n1)C(F)(F)F [Example 69, 7-(3,3-Difluoropyrrolidin-1-yl)-3-[(2-methylsulfonylphenyl)methyl]-5-[(2S)-1,1,1-trifluoropropan-2-yl]oxytriazolo[4,5-d]pyrimidine] | > 10000 | 3.2
8 | FC1(F)CCN(c2nc(N3CCCC3)nc3c2nnn3Cc2ccccc2Cl)C1 [Example 10, 3-[(2-Chlorophenyl)methyl]-7-(3,3-difluoropyrrolidin-1-yl)-5-pyrrolidin-1-yltriazolo[4,5-d]pyrimidine] | 217 | 2.9
9 | CC(C)(C)Nc1nc(N2CCC(F)(F)C2)c2nnn(Cc3ccccc3S(C)(=O)=O)c2n1 [Example 23, N-tert-Butyl-7-(3,3-difluoropyrrolidin-1-yl)-3-[(2-methylsulfonylphenyl)methyl]triazolo[4,5-d]pyrimidin-5-amine] | 487 | 1.1
10 | COc1ccc(Cn2nnc3c(N4CC[C@H](O)C4)nc(NC(C)(C)C)nc32)cc1 [Example 19, (3S)-1-[5-(tert-Butylamino)-3-[(4-methoxyphenyl)methyl]triazolo[4,5-d]pyrimidin-7-yl]pyrrolidin-3-ol] | > 10000 | 27.4
11 | FC1(F)CCN(c2nc(C3CC3)nc3c2nnn3Cc2ccccc2Cl)C1 [Example 4, 3-[(2-Chlorophenyl)methyl]-5-cyclopropyl-7-(3,3-difluoropyrrolidin-1-yl)triazolo[4,5-d]pyrimidine] | 750 | 1
12 | CC(=O)N[C@H]1CCN(c2nc(OCC(C)(C)C)nc3c2nnn3Cc2ccccc2Cl)C1 [Example 77, N-[(3S)-1-[3-[(2-Chlorophenyl)methyl]-5-(2,2-dimethylpropoxy)triazolo[4,5-d]pyrimidin-7-yl]pyrrolidin-3-yl]acetamide] | > 10000 | 58.2
13 | CN(c1nc(N2CCC(F)(F)C2)c2nnn(Cc3ccccc3Cl)c2n1)C1CCC1 [Example 18, 3-[(2-Chlorophenyl)methyl]-N-cyclobutyl-7-(3,3-difluoropyrrolidin-1-yl)-N-methyltriazolo[4,5-d]pyrimidin-5-amine] | 967 | 8.1
14 | CC(C)(O)COc1nc(N2CCC(F)(F)C2)c2nnn(Cc3ccccc3Cl)c2n1 [Example 58, 1-[3-[(2-Chlorophenyl)methyl]-7-(3,3-difluoropyrrolidin-1-yl)triazolo[4,5-d]pyrimidin-5-yl]oxy-2-methylpropan-2-ol] | > 10000 | 15.7
15 | C=C(C)c1nc(N2CC[C@H](O)C2)c2nnn(Cc3ccccc3Cl)c2n1 [Example 6, (3S)-1-[3-[(2-Chlorophenyl)methyl]-5-prop-1-en-2-yltriazolo[4,5-d]pyrimidin-7-yl]pyrrolidin-3-ol] | > 10000 | 3.6
16 | CC(C)(C)Nc1nc(N2CC[C@H](O)C2)c2nnn(Cc3ccccc3Cl)c2n1 [Example 28, (3S)-1-[5-(tert-Butylamino)-3-[(2-chlorophenyl)methyl]triazolo[4,5-d]pyrimidin-7-yl]pyrrolidin-3-ol] | > 10000 | 2.3
17 | CC(C)(C)Sc1nc(N2CCC(F)(F)C2)c2nnn(Cc3ccccc3Cl)c2n1 [Example 85, 5-tert-Butylsulfanyl-3-[(2-chlorophenyl)methyl]-7-(3,3-difluoropyrrolidin-1-yl)triazolo[4,5-d]pyrimidine] | 108 | 0.9
18 | CCCCSc1nc(N2CCC(F)(F)C2)c2nnn(Cc3ccccc3Cl)c2n1 [Example 91, 5-Butylsulfanyl-3-[(2-chlorophenyl)methyl]-7-(3,3-difluoropyrrolidin-1-yl)triazolo [4,5-d]pyrimidine] | > 10000 | 6.9
19 | OCCSc1nc(N2CCC(F)(F)C2)c2nnn(Cc3ccccc3Cl)c2n1 [Example 89, 2-[3-[(2-Chlorophenyl)methyl]-7-(3,3-difluoropyrrolidin-1-yl)triazolo[4,5-d]pyrimidin-5-yl]sulfanylethanol] | > 10000 | 7.4
20 | CC(O)CSc1nc(N2CCC(F)(F)C2)c2nnn(Cc3ccccc3Cl)c2n1 (centres unmarked) [Example 90, 1-[3-[(2-Chlorophenyl)methyl]-7-(3,3-difluoropyrrolidin-1-yl)triazolo[4,5-d]pyrimidin-5-yl]sulfanylpropan-2-ol] | > 10000 | 15.6
21 | CC(=O)N[C@H]1CCN(c2nc(OCC(C)(C)C)nc3c2nnn3Cc2ncccc2Cl)C1 [Example 78, N-[(3S)-1-[3-[(3-Chloropyridin-2-yl)methyl]-5-(2,2-dimethylpropoxy)triazolo[4,5-d]pyrimidin-7-yl]pyrrolidin-3-yl]acetamide] | > 10000 | 168
22 | COc1ccc(Cn2nnc3c(N4CC[C@H](NC(C)=O)C4)nc(NC(C)(C)C)nc32)cc1 [Example 21, N-[(3S)-1-[5-(tert-Butylamino)-3-[(4-methoxyphenyl)methyl]triazolo[4,5-d]pyrimidin-7-yl]pyrrolidin-3-yl]acetamide] | > 10000 | 141
23 | O=S(=O)(Cc1ccccc1)c1nc(N2CCC(F)(F)C2)c2nnn(Cc3ccccc3Cl)c2n1 [Example 87, 5-Benzylsulfonyl-3-[(2-chlorophenyl)methyl]-7-(3,3-difluoropyrrolidin-1-yl)triazolo [4,5-d]pyrimidine] | > 10000 | 83
24 | COc1ccc(Cn2nnc3c(N4CCC(F)(F)C4)nc(C4CC4)nc32)cc1 [Example 2, 5-Cyclopropyl-7-(3,3-difluoropyrrolidin-1-yl)-3-[(4-methoxyphenyl)methyl]triazolo [4,5-d]pyrimidine] | > 10000 | 6.4
25 | CC(C)(C)CNc1nc(N2CCC(F)(F)C2)c2nnn(Cc3ccccc3Cl)c2n1 [Example 16, 3-[(2-Chlorophenyl)methyl]-7-(3,3-difluoropyrrolidin-1-yl)-N-(2,2-dimethylpropyl) triazolo[4,5-d]pyrimidin-5-amine] | > 10000 | 3.1
26 | Cc1noc(Cn2nnc3c(N4CCC(F)(F)C4)nc(O[C@@H](C)C(F)(F)F)nc32)n1 [Example 72, 5-[[7-(3,3-Difluoropyrrolidin-1-yl)-5-[(2S)-1,1,1-trifluoropropan-2-yl]oxytriazolo[4,5-d]pyrimidin-3-yl]methyl]-3-methyl-1,2,4-oxadiazole] | > 10000 | 67.4
27 | CCOc1nc(N2CCC(F)(F)C2)c2nnn(Cc3ccccc3Cl)c2n1 [Example 44, 3-[(2-Chlorophenyl)methyl]-7-(3,3-difluoropyrrolidin-1-yl)-5-ethoxytriazolo[4,5-d]pyrimidine] | > 10000 | 4
28 | C[C@@H](Oc1nc(N2CCC(F)(F)C2)c2nnn(Cc3ccccc3Cl)c2n1)C(F)(F)F [Example 51, 3-[(2-Chlorophenyl)methyl]-7-(3,3-difluoropyrrolidin-1-yl)-5-[(2R)-1,1,1-trifluoropropan-2-yl]oxytriazolo[4,5-d]pyrimidine] | > 10000 | 2.1
